Laboratory results published in patent US20160051514A1, “METHODS FOR TREATMENT OF CARDIOMYOPATHY” (THE BRIGHAM AND WOMEN'S HOSPITAL, INC., priority 2013, published 2016).
“Also recorded” adds a separate entry of the source.

How the values were obtained:
[1] = tested on: neonatal rat ventricular myocytes expressing 2057del2 plakoglobin; assay: TUNEL assay of myocyte apoptosis; assay type: cell-based; conditions: cells expressing 2057del2 plakoglobin, SB216763
Excerpt: TUNEL assay: Apoptotic cells in cultures were detected by terminal deoxynucleotidyl transferase-mediated biotinylated UTP nick end-labeling (TUNEL) assay using the ApopTag™ Fluorescein Direct in Situ Apoptosis Detection Kit (Millipore) as previously described.^9 Nuclei were stained with DAPI, and TUNEL-positive and total nuclei were counted under a laser scanning confocal microscope in 5 fields per chamber.
TUNEL assay: Apoptotic cells in cultures were detected by terminal deoxynucleotidyl transferase-mediated biotinylated UTP nick end-labeling (TUNEL) assay using the ApopTag Fluorescein Direct in Situ Apoptosis Detection KitTM (Millipore) according to the manufacturer's instructions. Nuclei were stained with DAPI; TUNEL-positive and total nuclei were counted under a laser scanning confocal microscope in 5 fields per chamber or silicone membrane in stretch experiments.

[2] = tested on: neonatal rat ventricular myocytes expressing 2057del2 plakoglobin; assay: INa and IK1 current density in neonatal rat ventricular myocytes; assay type: cell-based
Description: INa activation and inactivation were measured by whole-cell voltage-clamp according to standard protocols (32,33). Cells were held at a membrane potential of −80 mV after which pulses between −120 and +50 mV were applied in 5 mV steps each with a duration of 250 ms. Inactivation was measured from membrane potentials between −120 mV and +50 mV at maximal activation (26,33). In view of the small size of zebrafish myocytes (cell capacitance of 6.7±2.6pF; n=47) it was not necessary to reduce extracellular [Na+] to achieve voltage control; extracellular [Na+] was reduced to 50 mM in studies of neonatal rat ventricular myocytes Access resistance of the patch electrodes was <7 MΩ. Measurements showing incomplete control of membrane potential were eliminated from analysis. The chemical composition of the external and pipette solutions is described in supplemental information.
The inward rectifier current IK1 was measured using the protocol described by Dobrev et al. and Nemtsas et al. (34,35). Ramp clamps of 1400 ms duration were applied between −120 and +20 mV. After each clamp, external solution containing Ba2+(1 mM) was applied via a large pore pipette placed adjacent to the clamped cell. IK1 was defined as the total current minus the Ba2+-insensitive current (33). Subtraction of the two currents was performed using a MatLab script. […]

[3] = tested on: nppb::luciferase reporter; assay: nppb::luciferase reporter chemical screen in 2057del2 plakoglobin zebrafish embryos; assay type: in vivo; conditions: 72 hpf, 3 μM in the well between 48 and 72 hpf
Description: Chemical screening: Chemicals were dissolved in DMSO (Sigma-Aldrich, St. Louis, Mo., USA). Embryos (double homozygous for the 2057del2 plakoglobin mutation and the nppb::luciferase reporter) were arrayed in 96 well plates in HEPES-buffered E3 medium and small molecules were pin-transferred (200 n1) from arrayed chemical libraries. Positive (untreated wild type nppb::luciferase embryos) and negative controls (untreated 2057del2 plakoglobin/nppb::luciferase fish) were included in each plate. […] Each set of compounds was tested in duplicate to improve the discriminatory power of the assay. After being evaluated for viability, an equal volume of long half-life luciferase reagent (Promega Steady Glo™) was added to each well. The plate was then incubated in the dark for 60 min and activities were measured with a Victor 3™ luminometer (Perkin-Elmer). Each measurement was performed in duplicate and results were normalized to the number of fish in the well. Follow-up chemical treatments were performed in HEPES-buffered E3 medium in petri dishes.

[4] = tested on: 2057del2 plakoglobin zebrafish; assay: Survival and cardiac physiology in the zebrafish model of ACM; assay type: in vivo
Description: In-house software (implemented in MATLAB™) was used to determine heart rate, while measurements of ventricular long and short axes in both diastole and systole were obtained using ImageJ™. Cardiac output was measured as diastolic minus systolic ventricular volume multiplied by heart rate, as outlined by Shin et al (30). Fractional shortening was calculated as end-diastolic diameter minus end-systolic diameter divided by end-diastolic diameter.
Survival studies: Embryos were kept in petri dishes until 7 dpf and then transferred to nursery tanks with larval food. Observations for phenotype and survival were recorded for several weeks. Data are presented as a Kaplan-Meier curve using Graphpad™ software.

Structure (SMILES): Cn1cc(C2=C(c3ccc(Cl)cc3Cl)C(=O)NC2=O)c2ccccc21 [SB216763]
- Myocyte apoptosis (TUNEL-positive nuclei) [1]: dramatically reduced the number of TUNEL positive nuclei; also recorded: significantly reduced the mean apoptosis index
- Myocyte apoptosis (TUNEL-positive nuclei) ([1]; listed as SAB216763): totally abolished
- Reduced INa and IK1 current densities in cells expressing mutant plakoglobin [2]: normalized the reduced current densities
- nppb expression / nppb::luciferase activity [3]: normalizer of the nppb response; also recorded: reduced nppb expression
- nppb expression / nppb::luciferase activity ([3]; listed as SB2): reduced nppb expression
- nppb expression / nppb::luciferase activity ([3]; listed as SB216736): normalized nppb::luciferase activity
- Survival at 3 months ([4]; longer term treatment of larval fish (7 days)): substantially increased survival
- Cardiac phenotype (bradycardia, contractility, heart failure) ([4]; mutant fish): rescues the heart failure phenotype; also recorded: prevented heart failure; also recorded: prevented bradycardia and contractility defects
- Survival at 28 days ([4]; mutant fish): significantly increased survival
- Cardiac phenotype (bradycardia, contractility, heart failure) ([4]; mutant fish, listed as SB2): reduced nppb expression and bradycardia, improved contractility
- Survival / mortality of mutant fish ([4]; time not stated): reduced mortality; also recorded: increased survival
- Developmental abnormalities ([4]; wide range of doses during embryonic or larval development): No developmental abnormalities were observed
